# According to ChEMBL document CHEMBL4411300 (Eur J Med Chem, 2019):
# pIC50: −log10 of the molar value.
# How the values were obtained:
# Trypanosoma cruzi [1] = experiment: Trypanocidal activity against Trypanosoma cruzi MHOM/Pe/2011/Arequipa DTU 5 epimastigotes after 48 to 72 hrs by resazurin dye based assay; type: functional, organism-based
# Trypanosoma cruzi [2] = experiment: Trypanocidal activity against Trypanosoma cruzi IRHOD/CO/2008/SN3 DTU 1 epimastigotes after 48 to 72 hrs by resazurin dye based assay; type: functional, organism-based
# Trypanosoma cruzi [3] = experiment: Trypanocidal activity against Trypanosoma cruzi TINF/CH/1956/Tulahuen DTU 6 epimastigotes after 48 to 72 hrs by resazurin dye based assay; type: functional, organism-based
# Vero = experiment: Cytotoxicity against African green monkey Vero cells assessed as reduction in cell viability after 48 to 72 hrs by resazurin dye based assay; conditions: Chlorocebus sabaeus
# Trypanosoma cruzi [4] = experiment: Trypanocidal activity against Trypanosoma cruzi MHOM/Pe/2011/Arequipa DTU 5 amastigotes infected in African green monkey Vero cells after 72 hrs by Giemsa-staining based microscopic assay; type: functional, organism-based; conditions: MHOM/Pe/2011/Arequipa DTU 5, Vero
# Trypanosoma cruzi [5] = experiment: Trypanocidal activity against Trypanosoma cruzi MHOM/Pe/2011/Arequipa DTU 5 trypomastigotes derived from infected Balb/c albino mouse after 24 hrs by resazurin dye based assay; type: functional, organism-based; conditions: MHOM/Pe/2011/Arequipa DTU 5, 24 h
# [6] = Selectivity index, ratio of IC50 for African green monkey Vero cells to IC50 for Trypanosoma cruzi MHOM/Pe/2011/Arequipa DTU 5 epimastigotes; type: toxicity; conditions: read-out: Ratio IC50
# [7] = Selectivity index, ratio of IC50 for African green monkey Vero cells to IC50 for Trypanosoma cruzi MHOM/Pe/2011/Arequipa DTU 5 amastigotes infected in African green monkey Vero cells; type: toxicity; conditions: read-out: Ratio IC50
# [8] = Selectivity index, ratio of IC50 for African green monkey Vero cells to IC50 for Trypanosoma cruzi MHOM/Pe/2011/Arequipa DTU 5 trypomastigotes derived from infected Balb/c albino mouse; type: toxicity; conditions: read-out: Ratio IC50
# [9] = Selectivity index, ratio of IC50 for African green monkey Vero cells to IC50 for Trypanosoma cruzi IRHOD/CO/2008/SN3 DTU 1 epimastigotes; type: toxicity; conditions: read-out: Ratio IC50
# [10] = Selectivity index, ratio of IC50 for African green monkey Vero cells to IC50 for Trypanosoma cruzi TINF/CH/1956/Tulahuen DTU 6 epimastigotes; type: toxicity; conditions: read-out: Ratio IC50
# Trypanosoma cruzi [11] = experiment: Trypanocidal activity against Trypanosoma cruzi IRHOD/CO/2008/SN3 DTU 1 amastigotes infected in African green monkey Vero cells after 72 hrs by Giemsa-staining based microscopic assay; type: functional, organism-based; conditions: IRHOD/CO/2008/SN3 DTU 1, Vero
# Trypanosoma cruzi [12] = experiment: Trypanocidal activity against Trypanosoma cruzi IRHOD/CO/2008/SN3 DTU 1 trypomastigotes derived from infected Balb/c albino mouse after 24 hrs by resazurin dye based assay; type: functional, organism-based; conditions: IRHOD/CO/2008/SN3 DTU 1, 24 h
# Trypanosoma cruzi [13] = experiment: Trypanocidal activity against Trypanosoma cruzi TINF/CH/1956/Tulahuen DTU 6 amastigotes infected in African green monkey Vero cells after 72 hrs by Giemsa-staining based microscopic assay; type: functional, organism-based; conditions: TINF/CH/1956/Tulahuen DTU 6, Vero
# Trypanosoma cruzi [14] = experiment: Trypanocidal activity against Trypanosoma cruzi TINF/CH/1956/Tulahuen DTU 6 trypomastigotes derived from infected Balb/c albino mouse after 24 hrs by resazurin dye based assay; type: functional, organism-based; conditions: TINF/CH/1956/Tulahuen DTU 6, 24 h
# [15] = Selectivity index, ratio of IC50 for African green monkey Vero cells to IC50 for Trypanosoma cruzi IRHOD/CO/2008/SN3 DTU 1 amastigotes infected in African green monkey Vero cells; type: toxicity; conditions: read-out: Ratio IC50
# [16] = Selectivity index, ratio of IC50 for African green monkey Vero cells to IC50 for Trypanosoma cruzi IRHOD/CO/2008/SN3 DTU 1 trypomastigotes derived from infected Balb/c albino mouse; type: toxicity; conditions: read-out: Ratio IC50
# [17] = Selectivity index, ratio of IC50 for African green monkey Vero cells to IC50 for Trypanosoma cruzi TINF/CH/1956/Tulahuen DTU 6 amastigotes infected in African green monkey Vero cells; type: toxicity; conditions: read-out: Ratio IC50
# [18] = Selectivity index, ratio of IC50 for African green monkey Vero cells to IC50 for Trypanosoma cruzi TINF/CH/1956/Tulahuen DTU 6 trypomastigotes derived from infected Balb/c albino mouse; type: toxicity; conditions: read-out: Ratio IC50
SMILES,pIC50 (Trypanosoma cruzi [1]),pIC50 (Trypanosoma cruzi [2]),pIC50 (Trypanosoma cruzi [3]),pIC50 (Vero),other results
c1ccc2cc(CNCCN(CCNCc3ccc4ccccc4c3)CCNCc3ccc4[nH]ncc4c3)ccc2c1,4.62,4.80,4.83,4.65,–
c1ccc2c(CNCCN(CCNCc3ccnc4ccccc34)CCNCc3ccnc4ccccc34)ccnc2c1,4.92,4.60,4.63,3.70,pIC50 (Trypanosoma cruzi [4]): 4.70; pIC50 (Trypanosoma cruzi [5]): 4.84; selectivity ratio [6]: 16.7; selectivity ratio [7]: 9.9; selectivity ratio [8]: 13.9; selectivity ratio [9]: 7.9; selectivity ratio [10]: 8.5
NCCN(CCN)CCNCc1ccc2ccc3cccc4ccc1c2c34,4.64,4.15,4.66,4.48,–
NCCN(CCN)CCNCc1c2ccccc2cc2ccccc12,4.53,4.79,4.26,4.69,–
NCCCNCCN(CCNCCCN)CCNCCCN,3.89,3.91,3.69,2.93,–
CN(C)c1cccc2c(S(=O)(=O)NCCN(CCN)CCN)cccc12,4.18,3.99,4.06,3.86,–
c1ccc(-c2n[nH]cc2CNCCN(CCNCc2c[nH]nc2-c2ccccc2)CCNCc2c[nH]nc2-c2ccccc2)cc1,4.14,3.73,4.05,3.17,–
NCCN(CCN)CCNCc1ccc2ccccc2c1,4.37,5.10,4.87,3.69,pIC50 (Trypanosoma cruzi [11]): 4.68; pIC50 (Trypanosoma cruzi [12]): 4.74; pIC50 (Trypanosoma cruzi [13]): 4.58; pIC50 (Trypanosoma cruzi [14]): 4.72; selectivity ratio [6]: 4.8; selectivity ratio [9]: 25.4; selectivity ratio [15]: 9.6; selectivity ratio [16]: 11; selectivity ratio [10]: 14.8; selectivity ratio [17]: 7.7; selectivity ratio [18]: 10.6
